# Laboratory results from ChEMBL document CHEMBL1139598, “A discriminant model constructed by the support vector machine method for HERG potassium channel inhibitors” (Bioorg Med Chem Lett, 2005).
# Biological target: Voltage-gated inwardly rectifying potassium channel KCNH2 (Homo sapiens, UniProt Q12809)
# Test: Inhibitory concentration against potassium channel HERG
# Voltage-gated inwardly rectifying potassium channel KCNH2, sequence (Q12809 whole entry): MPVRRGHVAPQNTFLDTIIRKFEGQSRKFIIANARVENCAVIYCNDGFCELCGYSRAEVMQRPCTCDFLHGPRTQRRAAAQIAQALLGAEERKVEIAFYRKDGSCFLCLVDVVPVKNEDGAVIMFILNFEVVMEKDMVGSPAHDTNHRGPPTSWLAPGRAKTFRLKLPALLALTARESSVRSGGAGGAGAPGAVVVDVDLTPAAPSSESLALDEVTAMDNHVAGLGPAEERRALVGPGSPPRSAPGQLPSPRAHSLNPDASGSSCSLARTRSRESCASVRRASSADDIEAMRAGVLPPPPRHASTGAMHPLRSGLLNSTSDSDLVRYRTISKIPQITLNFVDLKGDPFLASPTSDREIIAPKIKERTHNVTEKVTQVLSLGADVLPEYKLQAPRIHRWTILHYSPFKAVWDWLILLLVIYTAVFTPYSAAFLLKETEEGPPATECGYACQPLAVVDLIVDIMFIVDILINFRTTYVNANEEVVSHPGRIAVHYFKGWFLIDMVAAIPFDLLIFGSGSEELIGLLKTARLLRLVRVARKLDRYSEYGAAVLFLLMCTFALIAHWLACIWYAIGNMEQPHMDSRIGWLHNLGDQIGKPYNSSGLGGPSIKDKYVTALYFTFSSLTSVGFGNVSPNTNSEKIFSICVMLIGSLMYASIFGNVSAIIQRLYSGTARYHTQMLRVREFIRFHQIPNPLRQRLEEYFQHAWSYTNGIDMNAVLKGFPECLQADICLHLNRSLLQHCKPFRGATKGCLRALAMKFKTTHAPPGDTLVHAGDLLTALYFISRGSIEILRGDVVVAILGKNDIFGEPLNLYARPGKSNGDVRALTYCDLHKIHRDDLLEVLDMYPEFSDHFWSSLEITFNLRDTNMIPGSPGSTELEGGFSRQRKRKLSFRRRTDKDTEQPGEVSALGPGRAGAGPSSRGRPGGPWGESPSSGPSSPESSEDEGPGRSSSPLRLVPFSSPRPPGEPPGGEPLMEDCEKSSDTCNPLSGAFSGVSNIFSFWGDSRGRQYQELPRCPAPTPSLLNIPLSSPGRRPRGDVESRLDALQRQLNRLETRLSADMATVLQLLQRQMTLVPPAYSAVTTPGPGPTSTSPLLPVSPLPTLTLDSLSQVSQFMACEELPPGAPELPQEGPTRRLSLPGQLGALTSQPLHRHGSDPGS
row,SMILES,IC50
1,COc1ccc2c3c1O[C@H]1[C@@H](O)C=C[C@H]4[C@@H](C2)N(C)CC[C@@]341 [CODEINE],302 µM
2,CC[C@H](OC(C)=O)C(C[C@H](C)N(C)C)(c1ccccc1)c1ccccc1 [LEVOMETHADYL ACETATE],2.19 µM
3,CCC(=O)C(CC(C)N(C)C)(c1ccccc1)c1ccccc1 (centres undefined) [METHADONE],9.77 µM
4,COc1cc2nc(N3CCN(C(=O)c4ccco4)CC3)nc(N)c2cc1OC [PRAZOSIN],1.58 µM
